Measured values as given in ChEMBL document CHEMBL4334449, “Jorunnamycin A from Xestospongia sp. Suppresses Epithelial to Mesenchymal Transition and Sensitizes Anoikis in Human Lung Cancer Cells” (J Nat Prod, 2019).
The source made the active and inactive calls. The rule behind the calls is not given here.

Legend:
NCI-H460 [1] = test: Inhibition of epithelial-mesenchymal transition in human H460 cells under detachment conditions assessed as decrease in vimentin protein level 0.05 to 0.5 uM after 12 hrs by Western blot analysis; assay type: functional, cell-based
NCI-H460 [2] = test: Inhibition of epithelial-mesenchymal transition in human H460 cells under detachment conditions assessed as increase in claudin-1 protein level 0.05 to 0.5 uM after 12 hrs by Western blot analysis; assay type: functional, cell-based
NCI-H292 [3] = test: Antiproliferative activity against human NCI-H292 cells assessed as reduction in cell viability at 0.05 to 0.5 uM; assay type: functional, cell-based
NCI-H23 [4] = test: Antiproliferative activity against human H23 cells assessed as reduction in cell viability at 0.05 to 0.5 uM; assay type: functional, cell-based
NCI-H292 [5] = test: Antiproliferative activity against human NCI-H292 cells under detachment conditions assessed as reduction in cell viability at 0.05 to 0.5 uM up to 24 hrs by XTT assay; assay type: functional, cell-based
NCI-H23 [6] = test: Antiproliferative activity against human H23 cells under detachment conditions assessed as reduction in cell viability at 0.05 to 0.5 uM up to 24 hrs by XTT assay; assay type: functional, cell-based
NCI-H23 [7] = test: Induction of anoikis in human H23 cells under detachment conditions assessed as reduction in cell viability at 0.05 uM up to 24 hrs by XTT assay; assay type: functional, cell-based
NCI-H292 [8] = test: Induction of apoptosis in human NCI-H292 cells under detachment conditions assessed as viable cells at 0.5 uM after 24 hrs by Annexin V-FITC/propidium iodide staining-based flow cytometric analysis (reference value: 40.55%); assay type: functional; conditions: NCI-H292, 24 h, read-out: Activity
NCI-H292 [9] = test: Induction of apoptosis in human NCI-H292 cells under detachment conditions assessed as early apoptotic cells at 0.5 uM after 24 hrs by Annexin V-FITC/propidium iodide staining-based flow cytometric analysis (reference value: 29.96%); assay type: functional
NCI-H292 [10] = test: Induction of apoptosis in human NCI-H292 cells under detachment conditions assessed as late apoptotic cells at 0.5 uM after 24 hrs by Annexin V-FITC/propidium iodide staining-based flow cytometric analysis (reference value: 28.21%); assay type: functional
NCI-H292 [11] = test: Induction of apoptosis in human NCI-H292 cells under detachment conditions assessed as necrotic cells at 0.5 uM after 24 hrs by Annexin V-FITC/propidium iodide staining-based flow cytometric analysis (reference value: 1.28%); assay type: functional
NCI-H23 [12] = test: Induction of apoptosis in human H23 cells under detachment conditions assessed as viable cells at 0.5 uM after 24 hrs by Annexin V-FITC/propidium iodide staining-based flow cytometric analysis (reference value: 69.96%); assay type: functional; conditions: NCI-H23, 24 h, read-out: Activity
NCI-H23 [13] = test: Induction of apoptosis in human H23 cells under detachment conditions assessed as early apoptotic cells at 0.5 uM after 24 hrs by Annexin V-FITC/propidium iodide staining-based flow cytometric analysis (reference value: 26.81%); assay type: functional
NCI-H23 [14] = test: Induction of apoptosis in human H23 cells under detachment conditions assessed as late apoptotic cells at 0.5 uM after 24 hrs by Annexin V-FITC/propidium iodide staining-based flow cytometric analysis (reference value: 2.82%); assay type: functional
NCI-H23 [15] = test: Induction of apoptosis in human H23 cells under detachment conditions assessed as necrotic cells at 0.5 uM after 24 hrs by Annexin V-FITC/propidium iodide staining-based flow cytometric analysis (reference value: 0.41%); assay type: functional
NCI-H292 [16] = test: Inhibition of colony formation in human NCI-H292 cells under detachment conditions assessed as reduction in number of colonies at 0.1 to 0.5 uM after 14 days by microscopic method; assay type: functional, cell-based
NCI-H292 [17] = test: Inhibition of colony formation in human NCI-H292 cells under detachment conditions assessed as reduction in size of colonies at 0.1 to 0.5 uM after 14 days by microscopic method; assay type: functional, cell-based
NCI-H23 [18] = test: Inhibition of colony formation in human H23 cells under detachment conditions assessed as reduction in number of colonies at 0.1 to 0.5 uM after 14 days by microscopic method; assay type: functional, cell-based
NCI-H23 [19] = test: Inhibition of colony formation in human H23 cells under detachment conditions assessed as reduction in size of colonies at 0.1 to 0.5 uM after 14 days by microscopic method; assay type: functional, cell-based
NCI-H23 [20] = test: Induction of anoikis in human H23 cells harboring with p53 mutant under detachment conditions assessed as decrease in MCL-1 level at 0.05 to 0.5 uM after 12 hrs by Western blot analysis; assay type: functional, cell-based
NCI-H23 [21] = test: Induction of anoikis in human H23 cells harboring with p53 mutant under detachment conditions assessed as decrease in BCL-2 level at 0.05 to 0.5 uM after 12 hrs by Western blot analysis; assay type: functional, cell-based
NCI-H23 [22] = test: Induction of anoikis in human H23 cells harboring with p53 mutant under detachment conditions assessed as effect on Bax level at 0.05 to 0.5 uM after 12 hrs by Western blot analysis; assay type: functional, cell-based
NCI-H23 [23] = test: Induction of anoikis in human H23 cells harboring with p53 mutant under detachment conditions assessed as effect on P53 level at 0.05 to 0.5 uM after 12 hrs by Western blot analysis; assay type: functional, cell-based
NCI-H23 [24] = test: Down regulation of caveolin-1 human H23 cells harboring with p53 mutant under detachment conditions at 0.05 to 0.5 uM after 12 hrs by Western blot analysis; assay type: functional, cell-based
[25] = target: Serine/threonine-protein kinase AKT (Homo sapiens) (UniProt P31751+Q9Y243+P31749); test: Inhibition of AKT phosphorylation in human H23 cells harboring with p53 mutant under detachment conditions at 0.05 to 0.5 uM after 12 hrs by Western blot analysis; assay type: cell-based
Chain of Serine/threonine-protein kinase AKT (Homo sapiens) (P31749 whole entry, looked up): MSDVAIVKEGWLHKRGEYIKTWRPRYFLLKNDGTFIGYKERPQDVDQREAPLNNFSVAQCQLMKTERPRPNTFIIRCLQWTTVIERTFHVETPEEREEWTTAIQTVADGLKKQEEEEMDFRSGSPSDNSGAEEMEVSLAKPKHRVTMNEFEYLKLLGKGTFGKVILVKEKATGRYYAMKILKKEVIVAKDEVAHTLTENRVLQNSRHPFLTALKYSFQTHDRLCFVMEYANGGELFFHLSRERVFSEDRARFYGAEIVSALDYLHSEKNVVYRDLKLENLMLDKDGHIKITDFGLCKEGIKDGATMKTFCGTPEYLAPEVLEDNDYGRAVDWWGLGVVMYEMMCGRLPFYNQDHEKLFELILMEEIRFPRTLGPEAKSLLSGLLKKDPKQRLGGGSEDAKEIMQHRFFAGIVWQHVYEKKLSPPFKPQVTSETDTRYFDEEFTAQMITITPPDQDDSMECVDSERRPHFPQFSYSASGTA
Chain of Serine/threonine-protein kinase AKT (Homo sapiens) (P31751 whole entry, looked up): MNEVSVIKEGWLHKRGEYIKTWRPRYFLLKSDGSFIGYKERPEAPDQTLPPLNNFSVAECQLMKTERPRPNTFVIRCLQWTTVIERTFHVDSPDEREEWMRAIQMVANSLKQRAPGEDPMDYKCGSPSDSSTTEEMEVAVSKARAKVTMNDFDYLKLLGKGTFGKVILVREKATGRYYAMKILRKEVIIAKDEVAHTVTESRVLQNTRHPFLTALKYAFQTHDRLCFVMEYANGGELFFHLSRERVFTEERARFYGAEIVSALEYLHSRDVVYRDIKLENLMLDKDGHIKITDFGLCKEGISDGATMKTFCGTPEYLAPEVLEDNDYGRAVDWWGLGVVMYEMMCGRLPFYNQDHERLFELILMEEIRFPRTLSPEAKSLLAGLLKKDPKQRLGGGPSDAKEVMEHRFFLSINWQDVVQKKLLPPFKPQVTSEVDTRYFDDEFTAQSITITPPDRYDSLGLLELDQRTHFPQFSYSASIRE
Chain of Serine/threonine-protein kinase AKT (Homo sapiens) (Q9Y243 whole entry, looked up): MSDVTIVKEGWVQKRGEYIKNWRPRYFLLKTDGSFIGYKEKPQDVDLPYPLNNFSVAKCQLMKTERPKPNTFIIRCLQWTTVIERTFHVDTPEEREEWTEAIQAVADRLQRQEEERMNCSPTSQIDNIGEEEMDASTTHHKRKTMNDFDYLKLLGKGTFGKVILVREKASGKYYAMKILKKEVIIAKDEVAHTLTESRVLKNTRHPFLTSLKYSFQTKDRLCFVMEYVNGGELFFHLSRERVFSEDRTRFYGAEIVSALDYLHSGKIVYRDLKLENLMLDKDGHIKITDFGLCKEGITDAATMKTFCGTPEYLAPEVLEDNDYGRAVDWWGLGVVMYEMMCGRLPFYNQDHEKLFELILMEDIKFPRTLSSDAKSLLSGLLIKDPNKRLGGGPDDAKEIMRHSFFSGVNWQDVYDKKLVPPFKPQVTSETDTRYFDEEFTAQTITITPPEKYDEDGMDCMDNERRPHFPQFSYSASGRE

Homo sapiens = species: Homo sapiens; test: Inhibition of ERK phosphorylation in human H23 cells harboring with p53 mutant under detachment conditions at 0.05 to 0.5 uM after 12 hrs by Western blot analysis; assay type: cell-based
NCI-H23 [26] = test: Inhibition of epithelial-mesenchymal transition in human H23 cells harboring with p53 mutant under detachment conditions assessed as increase in E-cadherin protein level 0.05 to 0.5 uM after 12 hrs by Western blot analysis; assay type: functional, cell-based
NCI-H23 [27] = test: Inhibition of epithelial-mesenchymal transition in human H23 cells harboring with p53 mutant under detachment conditions assessed as decrease in snail protein level 0.05 to 0.5 uM after 12 hrs by Western blot analysis; assay type: functional, cell-based
NCI-H23 [28] = test: Inhibition of epithelial-mesenchymal transition in human H23 cells harboring with p53 mutant under detachment conditions assessed as decrease in vimentin protein level 0.05 to 0.5 uM after 12 hrs by Western blot analysis; assay type: functional, cell-based
NCI-H23 [29] = test: Inhibition of epithelial-mesenchymal transition in human H23 cells harboring with p53 mutant under detachment conditions assessed as increase in claudin-1 protein level 0.05 to 0.5 uM after 12 hrs by Western blot analysis; assay type: functional, cell-based

COC1=C(C)C(=O)C2=C(C1=O)[C@@H]1[C@@H]3CC4=C(C(=O)C(OC)=C(C)C4=O)[C@H](CO)N3[C@@H](C#N)[C@H](C2)N1C [JOURNNAMYCIN A]
inhibition (NCI-H460 [1]): Active
inhibition (NCI-H460 [2]): Active
Activity (NCI-H292 [3]): inactive
Activity (NCI-H23 [4]): inactive
Activity (NCI-H292 [5]): Active
Activity (NCI-H23 [6]): Active
Activity (NCI-H23 [7]): Active
viability at 0.5 µM (NCI-H292 [8]): 25.8%
Activity (NCI-H292 [9]): 45.68%
Activity (NCI-H292 [10]): 28.13%
Activity (NCI-H292 [11]): 0.4%
viability at 0.5 µM (NCI-H23 [12]): 44.6%
Activity (NCI-H23 [13]): 37.79%
Activity (NCI-H23 [14]): 17.1%
Activity (NCI-H23 [15]): 0.49%
inhibition (NCI-H292 [16]): Active
inhibition (NCI-H292 [17]): Active
inhibition (NCI-H23 [18]): Active
inhibition (NCI-H23 [19]): Active
Activity (NCI-H23 [20]): Active
Activity (NCI-H23 [21]): Active
Activity (NCI-H23 [22]): inactive
Activity (NCI-H23 [23]): inactive
Activity (NCI-H23 [24]): Active
inhibition [25]: Active
inhibition (Homo sapiens): Active
inhibition (NCI-H23 [26]): Active
inhibition (NCI-H23 [27]): Active
inhibition (NCI-H23 [28]): Active
inhibition (NCI-H23 [29]): Active
